Experimental data published in patent publication US20250197406A1, “INDAZOLES AS HEMATOPOIETIC PROGENITOR KINASE 1 (HPK1) INHIBITORS AND METHODS FOR USING SAME” (1ST Biotherapeutics, Inc., priority 2022, published 2025).
Where a name gives a salt, the structure may show the parent alone.

Target: recombinant human HPK1 (Homo sapiens (Human), UniProt Q92918)
Assay: HPK1 kinase assay (Promega ADP-Glo kinase assay)
Format: biochemical
Settings: In vitro activity against HPK1, 5 ng HPK1, MBP substrate, ATP 25 μM, 30° C. 40 minutes
Description: HPK1 kinase activity was measured by Promega's ADP-Glo™ kinase assay. In this assay, 5 ng of recombinant human HPK1 (signalchem) is incubated with 5 μL of compounds (0.5% DMSO), 5 μL of MBP (0.5 μg/μl) and 5 μL of ATP (25 μM) in buffer (40 mM Tris, 7.5; 20 mM MgCl2; 0.1 mg/ml BSA; 50 μM DTT.). The assay was started by incubating the reaction mixture in a 96-well plate at 30° C. for 40 minutes. After the incubation, 25 μL ADP-Glo reagent was added and the reaction was incubated at room temperature for 40-min to stop the reaction and degrade residual ATP. The ADP product was then converted to ATP by adding 50 μL per well of detection reagent. Luminescence was detected after 30-min room temperature incubation with the Molecular device I3X plate reader. The IC50 values were calculated from a series of percent inhibition values determined at a range of inhibitor concentration using software routines as implemented in the GraphPad Prism 7 software and SigmaPlot13.0.

recombinant human HPK1, sequence (Q92918 whole entry): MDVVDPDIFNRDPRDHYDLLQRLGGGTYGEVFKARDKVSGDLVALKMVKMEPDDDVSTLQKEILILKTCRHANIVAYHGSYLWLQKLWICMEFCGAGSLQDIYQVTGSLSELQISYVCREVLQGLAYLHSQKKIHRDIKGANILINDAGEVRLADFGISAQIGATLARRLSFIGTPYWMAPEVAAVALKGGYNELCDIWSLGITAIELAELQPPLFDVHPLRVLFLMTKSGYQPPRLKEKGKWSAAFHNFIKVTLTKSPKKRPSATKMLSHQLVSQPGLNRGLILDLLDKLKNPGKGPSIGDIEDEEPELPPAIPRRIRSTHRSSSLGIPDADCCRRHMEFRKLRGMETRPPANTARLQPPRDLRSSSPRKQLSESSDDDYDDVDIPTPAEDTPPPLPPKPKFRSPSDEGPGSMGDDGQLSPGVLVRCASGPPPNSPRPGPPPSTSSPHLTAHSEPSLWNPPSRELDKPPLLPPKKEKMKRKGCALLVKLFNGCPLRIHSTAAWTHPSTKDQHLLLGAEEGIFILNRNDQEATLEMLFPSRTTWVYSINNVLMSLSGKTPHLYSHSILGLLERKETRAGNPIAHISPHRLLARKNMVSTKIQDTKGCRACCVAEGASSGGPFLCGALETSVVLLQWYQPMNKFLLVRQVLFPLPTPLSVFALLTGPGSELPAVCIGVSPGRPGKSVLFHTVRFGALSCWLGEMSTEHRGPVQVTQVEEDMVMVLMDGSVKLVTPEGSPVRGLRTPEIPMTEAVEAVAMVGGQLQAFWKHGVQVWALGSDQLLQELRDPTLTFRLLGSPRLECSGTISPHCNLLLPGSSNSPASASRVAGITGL

IC50 [nM] | Compound
< 100 | CC(C)Nc1c(F)c(Cl)c(-c2cn3cc(NC(=O)N4CCN(C)CC4)nc3cn2)c2cn[nH]c12 [Example 92, N-(6-(5-chloro-6-fluoro-7-(isopropylamino)-1H-indazol-4-yl)imidazo[1,2-a]pyrazin-2-yl)-4-methylpiperazine-1-carboxamide formate]
< 100 | CC(N[S+]([O-])C(C)(C)C)c1c(F)c(C(F)(F)F)c(-c2cn3cc(NC(=O)[C@@H]4C[C@@H]4F)nc3cn2)c2cn[nH]c12 (stereo partly drawn) [Example 87, (1S,2S)-N-(6-(7-(1-((tert-butylsulfinyl)amino)ethyl)-6-fluoro-5-(trifluoromethyl)-1H-indazol-4-yl)imidazo[1,2-a]pyrazin-2-yl)-2-fluorocyclopropane-1-carboxamide]
< 100 | C[C@@H](N[S@+]([O-])C(C)(C)C)c1c(F)c(Cl)c(-c2cn3cc(NC(=O)[C@@H]4C[C@@H]4F)nc3cn2)c2cn[nH]c12 [Example 133, (1S,2S)-N-(6-(7-((R)-1-(((R)-tert-butylsulfinyl)amino)ethyl)-5-chloro-6-fluoro-1H-indazol-4-yl)imidazo[1,2-a]pyrazin-2-yl)-2-fluorocyclopropane-1-carboxamide]
101 to 500 | Cc1c(F)c(C(C)CN(C)C)c2[nH]ncc2c1-c1cn2cc(NC(=O)[C@@H]3C[C@@H]3F)nc2cn1 (stereo partly drawn) [Example 13, (1S,2S)-N-(6-(7-(1-(dimethylamino)propan-2-yl)-6-fluoro-5-methyl-1H-indazol-4-yl)imidazo[1,2-a]pyrazin-2-yl)-2-fluorocyclopropane-1-carboxamide]
< 100 | O=C(Nc1cn2cc(-c3c(C(F)F)c(F)c(C(C4CC4)N4C(=O)c5ccccc5C4=O)c4[nH]ncc34)ncc2n1)[C@@H]1C[C@@H]1F (stereo partly drawn) [Example 48, (1S,2S)-N-(6-(7-(cyclopropyl(1,3-dioxoisoindolin-2-yl)methyl)-5-(difluoromethyl)-6-fluoro-1H-indazol-4-yl)imidazo[1,2-a]pyrazin-2-yl)-2-fluorocyclopropane-1-carboxamide]
< 100 | CC(C)Nc1c(F)c(C(F)F)c(-c2cn3cc(NC(=O)C4CC4)nc3cn2)c2cn[nH]c12 [Example 156, N-(6-(5-(difluoromethyl)-6-fluoro-7-(isopropylamino)-1H-indazol-4-yl)imidazo[1,2-a]pyrazin-2-yl)cyclopropanecarboxamide]
< 100 | CC(C)Nc1c(F)c(Cl)c(-c2cn3cc(NC(=O)[C@@H]4C[C@@H]4CCl)nc3cn2)c2cn[nH]c12 [Example 37, (1R,2S)-N-(6-(5-chloro-6-fluoro-7-(isopropylamino)-1H-indazol-4-yl)imidazo[1,2-a]pyrazin-2-yl)-2-(chloromethyl)cyclopropane-1-carboxamide]
< 100 | CC(O)c1c(F)c(C(F)F)c(-c2cn3cc(NC(=O)[C@@H]4C[C@@H]4F)nc3cn2)c2cn[nH]c12 (stereo partly drawn) [Example 49, (1S,2S)-N-(6-(5-(difluoromethyl)-6-fluoro-7-(1-hydroxyethyl)-1H-indazol-4-yl)imidazo[1,2-a]pyrazin-2-yl)-2-fluorocyclopropane-1-carboxamide]
< 100 | CC(=O)NC(c1c(F)c(C(F)F)c(-c2cn3cc(NC(=O)[C@@H]4C[C@@H]4F)nc3cn2)c2cn[nH]c12)C1CC1 (stereo partly drawn) [Example 54, (1S,2S)-N-(6-(7-(acetamido(cyclopropyl)methyl)-5-(difluoromethyl)-6-fluoro-1H-indazol-4-yl)imidazo[1,2-a]pyrazin-2-yl)-2-fluorocyclopropane-1-carboxamide]
< 100 | CC(CN)c1c(F)c(C(F)(F)F)c(-c2cn3cc(NC(=O)[C@@H]4C[C@@H]4F)nc3cn2)c2cn[nH]c12 (stereo partly drawn) [Example 98, (1S,2S)-N-(6-(7-(1-aminopropan-2-yl)-6-fluoro-5-(trifluoromethyl)-1H-indazol-4-yl)imidazo[1,2-a]pyrazin-2-yl)-2-fluorocyclopropane-1-carboxamide formate]
101 to 500 | CC(C)Nc1c(F)c(CO)c(-c2cn3cc(NC(=O)[C@@H]4C[C@@H]4F)nc3cn2)c2cn[nH]c12 [Example 40, (1S,2S)-2-fluoro-N-(6-(6-fluoro-5-(hydroxymethyl)-7-(isopropylamino)-1H-indazol-4-yl)imidazo[1,2-a]pyrazin-2-yl)cyclopropane-1-carboxamide]
< 100 | O=CNC(c1c(F)c(C(F)(F)F)c(-c2cn3cc(NC(=O)[C@@H]4C[C@@H]4F)nc3cn2)c2cn[nH]c12)C1CC1 (stereo partly drawn) [Example 115, (1S,2S)-N-(6-(7-(cyclopropyl(formamido)methyl)-6-fluoro-5-(trifluoromethyl)-1H-indazol-4-yl)imidazo[1,2-a]pyrazin-2-yl)-2-fluorocyclopropane-1-carboxamide]
< 100 | CC(=O)NC(c1c(F)c(C)c(-c2cn3cc(NC(=O)[C@@H]4C[C@@H]4F)nc3cn2)c2cn[nH]c12)C1CC1 (stereo partly drawn) [Example 42, (1S,2S)-N-(6-(7-(acetamido(cyclopropyl)methyl)-6-fluoro-5-methyl-1H-indazol-4-yl)imidazo[1,2-a]pyrazin-2-yl)-2-fluorocyclopropane-1-carboxamide]
< 100 | O=C(NC(c1c(F)c(C(F)F)c(-c2cn3cc(NC(=O)[C@@H]4C[C@@H]4F)nc3cn2)c2cn[nH]c12)C1CC1)C1CC1 (stereo partly drawn) [Example 77, (1S,2S)-N-(6-(7-(cyclopropanecarboxamido(cyclopropyl)methyl)-5-(difluoromethyl)-6-fluoro-1H-indazol-4-yl)imidazo[1,2-a]pyrazin-2-yl)-2-fluorocyclopropane-1-carboxamide]
101 to 500 | CC(C)Nc1c(F)c(Cl)c(-c2cn3cc(NC(=O)C4CCN4)nc3cn2)c2cn[nH]c12 (stereo not shown) [Example 108, N-(6-(5-chloro-6-fluoro-7-(isopropylamino)-1H-indazol-4-yl)imidazo[1,2-a]pyrazin-2-yl)azetidine-2-carboxamide]
< 100 | COc1c(F)c(NC(C)C)c2[nH]ncc2c1-c1cn2cc(NC(=O)[C@@H]3C[C@@H]3F)nc2cn1 [Example 141, (1S,2S)-2-fluoro-N-(6-(6-fluoro-7-(isopropylamino)-5-methoxy-1H-indazol-4-yl)imidazo[1,2-a]pyrazin-2-yl)cyclopropane-1-carboxamide]
< 100 | CC(=O)Nc1cn2cc(-c3c(Cl)c(F)c([C@@H](C)NC(=O)C(F)(F)F)c4[nH]ncc34)ncc2n1 [Example 139, (R)-N-(1-(4-(2-acetamidoimidazo[1,2-a]pyrazin-6-yl)-5-chloro-6-fluoro-1H-indazol-7-yl)ethyl)-2,2,2-trifluoroacetamide]
< 100 | CC(C)Nc1c(F)c(Cl)c(-c2cn3cc(NC(=O)[C@@H]4C[C@@H]4C#N)nc3cn2)c2cn[nH]c12 [Example 51, (1R,2S)-N-(6-(5-chloro-6-fluoro-7-(isopropylamino)-1H-indazol-4-yl)imidazo[1,2-a]pyrazin-2-yl)-2-cyanocyclopropane-1-carboxamide]
< 100 | CC(C)Nc1c(F)c(Cl)c(-c2cn3cc(NC(=O)OC4CCC4)nc3cn2)c2cn[nH]c12 [Example 126, cyclobutyl (6-(5-chloro-6-fluoro-7-(isopropylamino)-1H-indazol-4-yl)imidazo[1,2-a]pyrazin-2-yl)carbamate formate]
< 100 | CN(C)c1c(F)c(C(F)F)c(-c2cn3cc(NC(=O)[C@@H]4C[C@@H]4F)nc3cn2)c2cn[nH]c12 [Example 17, (1S,2S)-N-(6-(5-(difluoromethyl)-7-(dimethylamino)-6-fluoro-1H-indazol-4-yl)imidazo[1,2-a]pyrazin-2-yl)-2-fluorocyclopropane-1-carboxamide]
< 100 | C[C@H](NC(=O)C(F)(F)F)c1c(F)c(Cl)c(-c2cn3cc(NC(=O)[C@@H]4C[C@@H]4F)nc3cn2)c2cn[nH]c12 [Example 146, (1S,2S)-N-(6-(5-chloro-6-fluoro-7-((S)-1-(2,2,2-trifluoroacetamido)ethyl)-1H-indazol-4-yl)imidazo[1,2-a]pyrazin-2-yl)-2-fluorocyclopropane-1-carboxamide]
< 100 | Cc1c(F)c(C(C)CO)c2[nH]ncc2c1-c1cn2cc(NC(=O)[C@@H]3C[C@@H]3F)nc2cn1 (stereo partly drawn) [Example 8, (1S,2S)-2-fluoro-N-(6-(6-fluoro-7-(1-hydroxypropan-2-yl)-5-methyl-1H-indazol-4-yl)imidazo[1,2-a]pyrazin-2-yl)cyclopropane-1-carboxamide]
< 100 | NC(c1c(F)c(C(F)(F)F)c(-c2cn3cc(NC(=O)[C@@H]4C[C@@H]4F)nc3cn2)c2cn[nH]c12)C1CC1 (stereo partly drawn) [Example 44, (1S,2S)-N-(6-(7-(amino(cyclopropyl)methyl)-6-fluoro-5-(trifluoromethyl)-1H-indazol-4-yl)imidazo[1,2-a]pyrazin-2-yl)-2-fluorocyclopropane-1-carboxamide]
< 100 | CN(C)c1c(F)c(C(F)(F)F)c(-c2cn3cc(NC(=O)[C@@H]4C[C@H]4F)nc3cn2)c2cn[nH]c12 [Example 30, (1S,2R)-N-(6-(7-(dimethylamino)-6-fluoro-5-(trifluoromethyl)-1H-indazol-4-yl)imidazo[1,2-a]pyrazin-2-yl)-2-fluorocyclopropane-1-carboxamide]
101 to 500 | Cc1c(F)c(C2=CC(=O)CC2)c2[nH]ncc2c1-c1cn2cc(NC(=O)[C@@H]3C[C@@H]3F)nc2cn1 [Example 7, (1S,2S)-2-fluoro-N-(6-(6-fluoro-5-methyl-7-(3-oxocyclopent-1-en-1-yl)-1H-indazol-4-yl)imidazo[1,2-a]pyrazin-2-yl)cyclopropane-1-carboxamide]
